The text below walks through data of patent US20220326244A1, “METHODS FOR DIAGNOSIS, PROGNOSIS, AND TREATMENT OF CANCER” (The Boardof Trustees of the Leland Stanford Junort …, priority 2019, published 2022).

In one assay the test system is NK-92 cells. Nature of the assay: PMA-stimulated degranulation and intracellular cytokine production of NK-92 cells (CyTOF). Format: cell-based, human. As to conditions: mono- and coculture; PMA 4 h exposure. The text has this:
Intracellular cytokine production of CD9+ and CD9− NK-92 cells. One of the mechanisms by which dNK cells exert immune tolerance is through poor cytotoxic responses and secretion of a specific set of cytokines. Thus, we hypothesized that trogocytosis and the acquisition of CD9 by NK-92 cells endows them with features of immune tolerance. Therefore, we measured the intracellular expression levels of cytolytic proteins (perforin and granzyme B), anti-tumor cytokines ([…], TNFα, GM-CSF, IFNγ), the proangiogenic cytokine IL-8, the immunosuppressive cytokine IL-10, and CD107a, a marker for degranulation in both CD9+ and CD9− NK-92 cells after coculture with HGSC cells lines. Specifically, we measured NK-92 cell function before and after coculture in response to phorbol-12-myristate-13-acetate (PMA). Exposing cocultures to PMA circumvents upstream NK receptor signaling and is a convenient method for measuring NK cell function. In a pilot study, we determined that a coculture time of 6 h produced the most robust intracellular cytokine production (ICP). Therefore, NK-92 and HGSC cell lines were cocultured for 6 h in the presence of PMA (4 h exposure) with brefeldin A and monensin added to block secretion (Materials and Methods). For all experiments, we used two positive controls. […]

In the next assay the test system is Kuramochi (EV) cell line. Kind of assay: Carboplatin exposure of HGSC cell line, CyTOF with tumor NK receptor ligand/ADAM antibody panel. It counts as cell-based. As to conditions: for frequency of cells expressing nectin 4: baseline 15%. On the procedure: (§1) FIG. 4. Responses to carboplatin across E, EV and V HGSC cell lines. OVCAR4 (E), Kuramochi (EV) and TYK-nu (V) cell lines exposed to vehicle or carboplatin at 0.5 or 1 μg/ml for 1 week were processed for CyTOF with the tumor NK receptor ligand/ADAM antibody panel. The parent population is defined as viable single cells negative for cisplatin and cPARP. The plots show frequencies of HGSC cells expressing activating and inhibitor NK receptor ligands (X-axis) gated out of the parent population (Y-axis). Plots show the mean of triplicates with standard deviations. p-values: *≤0.05, **≤0.005, for overall ANOVA.
(§2) Changes in NK receptor ligand expression levels in response to carboplatin. It is well established that activation of the DNA damage response with genotoxic agents increases the expression of ligands for NKG2D and DNAM1 thereby making a “stressed” cell more susceptible to NK cell killing. We therefore exposed the three HGSC cell lines to carboplatin, a genotoxic agent that is part of the standard-of-care regimen for women with HGSC. After one week, the HGSC cell lines were processed for CyTOF using the tumor/NK receptor ligand antibody panel (Table 12).
(§3) Sample Processing and Antibody Staining for CyTOF. Frozen, fixed single-cell suspensions of HGSC tumors or cell lines were thawed at room temperature. For each sample, 1×10^6 cells were aliquoted into cluster tubes in 96 well plates and subjected to pre-permeabilization palladium barcoding. After barcoding, pooled cells were pelleted and incubated for 10 min at room temperature with FcX block (Biolegend) to block non-specific antibody binding. Cells were then incubated with antibodies against surface markers for 45 min at room temperature. Cells were permeabilized at 4° C. with methanol or 1× Permeabilization Buffer (eBioscience) (only for the CyTOF antibody panel designed to characterize intracellular cytokines, on ice for 10 min. Cells were subsequently stained with antibodies against intracellular markers for 1 h at room temperature, washed, and incubated with the ^191/193Ir DNA intercalator (Fluidigm) at 4° C. overnight. Cells were washed and resuspended in a solution of normalization beads before introduction into the CyTOF 2.

The test system of a further assay is OVCAR4 (E) cell line. The assay is described as above. To be noted: for frequency of cells expressing nectin 4: OVCAR4, 1 week. Format: cell-based. On the procedure: as §1, §2, §3
Another assay deals with TYK-nu (V) cell line. The assay is described as above. It counts as cell-based. As to conditions: for frequency of cells expressing nectin 4: baseline 6%. How it is done: as §1, §2, §3
In assay [1] the test system is HGSC cell lines (OVCAR4, Kuramochi, TYK-nu). Kind of assay: Carboplatin exposure of the three HGSC cell lines, CyTOF (stated for all lines together). It counts as cell-based. How it is done: as §1, §2
Sample Processing and Antibody Staining for CyTOF. Frozen, fixed single-cell suspensions of HGSC tumors or cell lines were thawed at room temperature. […]

Assay [2] relates to NK-92 cells cocultured with OVCAR4, Kuramochi and TYK-nu HGSC tumor cell lines. Kind of assay: Trogocytosis inhibition: CD9 acquisition by NK-92 cells in coculture with HGSC cell lines. It counts as cell-based, human. On the procedure: To further confirm that the mechanism of CD9 acquisition by NK-92 cells was through trogocytosis we performed an additional series of experiments. Many studies have shown that inhibitors of actin polymerization block trogocytosis but that the effect of these inhibitors vary depending on the cell type.
(§4) Trogocytosis inhibition. NK-92 cells were pre-treated with cytochalasin D (10 μM in complete media) for 2 h. They were then co-cultured with cancer cell lines as indicated in a ratio of 1:1 in the continuous presence of cytochalasin D for a further 2 h after which cells were stained with antibodies against CD9, CD45 and processed prior to CyTOF analysis as described above.

Assay [3] relates to NK-92 cells cocultured with non-HGSC tumor cell lines. Nature of the assay: Trogocytosis inhibition: CD9 uptake by NK-92 cells in coculture with non-HGSC cell lines. Format: cell-based, human.
Excerpt: Evaluation of NK-92 trogocyctosis from non-HGSC cell lines. In order to determine whether NK-92 CD9 trogocytosis was a feature of non-HGSC tumor cells, we established the frequency of CD9-expressing cells in 15 non-HGSC as well as 11 HGSC tumor cell lines (FIG. 6A). The frequency and levels of CD9-expressing tumor cells varied across the cell lines and are presented going from highest to lowest CD9 levels (FIGS. 6A and B). […] We therefore chose three non-HGSC tumor cell lines with high CD9 expression (HCT116, A431 and MCF7) and three with lower CD9 expression (HeLa, CaCo-2 and HepG2) for trogocytosis experiments (FIG. 6B). NK-92 trogocytosis from non-HGSC cell lines was highly varied, not correlated to CD9 levels and, aside from the HCT116 colorectal cancer cell line, less pronounced than from the HGSC cell lines (FIGS. 5C and 6C).
as §4

In the case of `CCCCCCCCCCCCCC(=O)O[C@@H]1[C@@H](C)[C@@]2(O)[C@@H](C=C(CO)C[C@]3(O)C(=O)C(C)=C[C@@H]23)[C@@H]2C(C)(C)[C@]12OC(C)=O` [PMA, phorbol-12-myristate-13-acetate], the “NK-92 cell degranulation (CD107a) and production of MIP1a” value in the assay with NK-92 cells is recorded as “robust responses”.
For the compound `N.N.O=C([O-])C1(C(=O)[O-])CCC1.[Pt+2]` [carboplatin], the “frequency of cells expressing HLA-E” value in the assay with Kuramochi (EV) cell line (Kuramochi, after carboplatin 1 week) is “significant increases”; in the assay with OVCAR4 (E) cell line (OVCAR4, after carboplatin 1 week) it was “significant increases”; with TYK-nu (V) cell line (TYK-nu, after carboplatin 1 week), “significant increases”. The “frequency of cells expressing nectin 4” value in the assay with Kuramochi (EV) cell line (Kuramochi, first listed of two carboplatin doses) worked out at 22%; in the assay on Kuramochi (EV) cell line (Kuramochi, second listed of two carboplatin doses) it was 23%; with OVCAR4 (E) cell line (first listed of two carboplatin doses (0.5 or 1 μg/ml), baseline 24%), 39%; with OVCAR4 (E) cell line (second listed of two carboplatin doses (0.5 or 1 μg/ml), baseline 24%), 45%; in the assay with TYK-nu (V) cell line (TYK-nu, first listed of two carboplatin doses), 9%; with TYK-nu (V) cell line (TYK-nu, second listed of two carboplatin doses), 9%. Further, in the assay with Kuramochi (EV) cell line (after carboplatin 1 week), the “frequency of Kuramochi cells expressing HLA-ABC” value is given as “significant increase”. Further, in the assay on OVCAR4 (E) cell line (after carboplatin (0.5 or 1 μg/ml, 1 week), baseline 24%), the “frequency of OVCAR4 cells expressing ULBP2” value is given as 50%. In addition, the “CD111 in TYK-nu cells” value in the assay on TYK-nu (V) cell line (after carboplatin 1 week) is listed as “significant increase”. Further, the “proportion of HGSC tumor cells that expressed NK inhibitory receptor ligands” value in assay [1] (all three cell lines, after carboplatin) was “increased”. Further, in assay [1] (carboplatin 0.5 or 1 μg/ml for 1 week), the “DNA damage response: pH2AX” value is on record as “increase”.
For the compound `C=C1[C@@H](C)[C@H]2[C@H](Cc3ccccc3)NC(=O)[C@]23[C@H](OC(C)=O)/C=C/[C@@](C)(O)C(=O)[C@@H](C)C/C=C/[C@H]3[C@@H]1O` [cytochalasin D], in assay [2] (NK-92 pre-incubated 2 h with cytochalasin D, coculture in its presence with OVCAR4, Kuramochi and TYK-nu), the “reduction of CD9+ NK-92 cells” value was 40-69%. The “inhibition of trogocytosis (HGSC cell line coculture)” value in assay [2] (pre-incubation of NK-92 cells with cytochalasin D (10 μM)) is reported as “partial inhibition”. The “CD9 uptake in NK-92” value in assay [3] (non-HGSC cell lines, most marked for HCT116, MCF7 and CaCo2) is listed as “partially inhibited”. For the same compound, the “inhibition of trogocytosis (non-HGSC cell coculture)” value in assay [3] (preincubation of NK-92 cells with cytochalasin D (10 μM)) is given as “partial inhibition”.
